In the test the test system is P388 leukemia ip, CD2F1 mice, survival T/C. The test is described as follows: NCI In Vivo Anticancer Drug Screen. Data for tumor model P388 Leukemia (intraperitoneal) in CD2F1 (CDF1) mice. To be noted: endpoint: median survival time, higher = longer survival. Summed up:
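Mice carrying the transplanted tumor received test compound or vehicle. Survival was recorded in each group, and the value is the treated-group measurement divided by that of the vehicle-treated control group.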

Setting [1] is: dose: 12.5 mg/kg/injection, schedule: Q01DX009 (ip), vehicle: saline with Tween-80.
Setting [2] is: dose: 25.0 mg/kg/injection, schedule: Q01DX009 (ip), vehicle: saline with Tween-80.
Setting [3] is: dose: 100.0 mg/kg/injection, schedule: Q01DX009 (ip), vehicle: saline with Tween-80.
[4] abbreviates: dose: 50.0 mg/kg/injection, schedule: Q01DX009 (ip), vehicle: Klucel (hydroxypropylcellulose) (HPC).
[5] abbreviates: dose: 100.0 mg/kg/injection, schedule: Q01DX009 (ip), vehicle: Klucel (hydroxypropylcellulose) (HPC).
[6] abbreviates: dose: 60.0 mg/kg/injection, schedule: Q01DX005 (ip), vehicle: saline.
Setting [7] is: dose: 120.0 mg/kg/injection, schedule: Q01DX005 (ip), vehicle: saline.
Where [8] appears, read: dose: 240.0 mg/kg/injection, schedule: Q01DX005 (ip), vehicle: saline.
Where [9] appears, read: dose: 50.0 mg/kg/injection, schedule: Q01DX005 (ip), vehicle: saline with Tween-80.
[10] abbreviates: dose: 100.0 mg/kg/injection, schedule: Q01DX005 (ip), vehicle: saline with Tween-80.
Setting [11] is: dose: 200.0 mg/kg/injection, schedule: Q01DX005 (ip), vehicle: saline with Tween-80.
Where [12] appears, read: dose: 50.0 mg/kg/injection, schedule: Q01DX009 (ip), vehicle: saline with Tween-80.
The mark [13] stands for this setting: dose: 100.0 mg/kg/injection, schedule: Q04DX003 (ip), vehicle: saline with Tween-80.
The mark [14] stands for this setting: dose: 200.0 mg/kg/injection, schedule: Q04DX003 (ip), vehicle: saline with Tween-80.
[15] abbreviates: dose: 200.0 mg/kg/injection, schedule: Q01DX009 (ip), vehicle: saline with Tween-80.

Each structure is given as a SMILES string. Several values for one entry are separate records, joined by “and”; a condition that tells them apart may be missing. Equal entries are not always repeated. Toxic doses and inconclusive results are not listed.

With `Nc1ccc2c(c1)CN1C(=O)c3ccccc3C1=N2`, the T/C is, setting by setting: (dose: 6.25 mg/kg/injection, schedule: Q01DX009 (ip), vehicle: saline with Tween-80) 100 % of control; under setting [1], 93 % of control; (dose: 22.2 mg/kg/injection, schedule: Q01DX009 (ip), vehicle: saline with Tween-80) 111 % of control; under setting [2], 96 % of control; (dose: 25.0 mg/kg/injection, schedule: Q01DX009 (ip), vehicle: saline) 91 % of control; (dose: 30.0 mg/kg/injection, schedule: Q01DX009 (ip), vehicle: saline with Tween-80) 104 % of control. For the same molecule, the T/C is 97 % of control (dose: 33.4 mg/kg/injection, schedule: Q01DX009 (oral), vehicle: saline with Tween-80); 90 % of control (dose: 40.0 mg/kg/injection, schedule: Q01DX009 (ip), vehicle: saline with Tween-80); 161 % of control (dose: 50.0 mg/kg/injection, schedule: Q01DX009 (ip), vehicle: saline); 108 % of control (dose: 50.0 mg/kg/injection, schedule: Q01DX009 (oral), vehicle: saline with Tween-80); 119 % of control (dose: 60.0 mg/kg/injection, schedule: Q01DX009 (ip), vehicle: saline with Tween-80); 108 % of control (dose: 75.0 mg/kg/injection, schedule: Q01DX009 (oral), vehicle: saline with Tween-80). For the same molecule, the T/C was 100 % of control and 93 % of control under setting [3]; 121 % of control (dose: 112.4 mg/kg/injection, schedule: Q01DX009 (ip), vehicle: saline with Tween-80); 117 % of control (dose: 112.4 mg/kg/injection, schedule: Q01DX009 (oral), vehicle: saline with Tween-80); 108 % of control (dose: 168.5 mg/kg/injection, schedule: Q01DX009 (oral), vehicle: saline with Tween-80).

Take `Cc1ccc2c(N(C)C)cc(N(C)C)nc2c1C`: the T/C is, setting by setting: under setting [4], 104 % of control; under setting [5], 105 % of control.

As for `CC(=O)N(C)C(C(=O)N1CC(C)CC1C(=O)N(C)C1C(=O)NC(CC(C)C)C(=O)N2CC(C)CC2C(=O)NC(CC(C)C)C(=O)N(C)C(C(C)C)C(=O)N2CCCC2C(=O)N(C)C(CC(C)C)C(=O)NCC(=O)OC1C)C(C)C` (stereo not given), the T/C was 103 % of control (dose: 3.12 mg/kg/injection, schedule: Q01DX009 (ip), vehicle: Klucel (hydroxypropylcellulose) (HPC)); 97 % of control (dose: 6.25 mg/kg/injection, schedule: Q01DX009 (ip), vehicle: Klucel (hydroxypropylcellulose) (HPC)); 100 % of control (dose: 12.5 mg/kg/injection, schedule: Q01DX009 (ip), vehicle: Klucel (hydroxypropylcellulose) (HPC)); 93 % of control (dose: 18.75 mg/kg/injection, schedule: Q01DX009 (ip), vehicle: Klucel (hydroxypropylcellulose) (HPC)); 93 % of control (dose: 25.0 mg/kg/injection, schedule: Q01DX009 (ip), vehicle: Klucel (hydroxypropylcellulose) (HPC)).

For the molecule `CCOC(=O)c1ccc(NN=NCCF)cc1`, the T/C is, setting by setting: (dose: 6.25 mg/kg/injection, schedule: Q01DX005 (ip), vehicle: distilled water + Tween-80) 160 % of control; (dose: 12.5 mg/kg/injection, schedule: Q01DX005 (ip), vehicle: distilled water + Tween-80) 252 % of control; (dose: 25.0 mg/kg/injection, schedule: Q01DX005 (ip), vehicle: distilled water + Tween-80) 256 % of control and 275 % of control.

`O=c1c2ccccc2c2ccccc2c(=O)n1-c1cc2c3ccccc3ccc2c2ccccc12`: the T/C runs as follows: (dose: 60.0 mg/kg/injection, schedule: Q01DX005 (ip), vehicle: Klucel (hydroxypropylcellulose) (HPC)) 100 % of control; (dose: 120.0 mg/kg/injection, schedule: Q01DX005 (ip), vehicle: Klucel (hydroxypropylcellulose) (HPC)) 99 % of control; (dose: 240.0 mg/kg/injection, schedule: Q01DX005 (ip), vehicle: Klucel (hydroxypropylcellulose) (HPC)) 95 % of control.

For the molecule `CN(C)CCSCC(=O)Nc1ccccc1Cl`, the T/C was 103 % of control under setting [6], 106 % of control under setting [7] and 106 % of control under setting [8].

With `O=S1C2CCC(Br)C1CCC2Br` (stereo not given), the T/C runs as follows: (dose: 0.39 mg/kg/injection, schedule: Q04DX002 (ip), vehicle: saline + alcohol) 105 % of control; (dose: 0.78 mg/kg/injection, schedule: Q04DX002 (ip), vehicle: saline + alcohol) 100 % of control; (dose: 1.56 mg/kg/injection, schedule: Q04DX002 (ip), vehicle: saline + alcohol) 101 % of control.

`COc1cc(CC2COC(=O)C2(O)Cc2ccc(O)c(OC)c2)ccc1O` (stereo not given): the T/C under setting [9] was 98 % of control, the T/C under setting [10] is 95 % of control and the T/C under setting [11] is 100 % of control.

In the case of `O=C(O)c1c(-c2ccc(Cl)cc2)c(-c2ccc(Cl)cc2)nn(CCO)c1=O`, the T/C by setting is: (dose: 25.0 mg/kg/injection, schedule: Q04DX002 (ip), vehicle: distilled water + Tween-80) 101 % of control; (dose: 50.0 mg/kg/injection, schedule: Q04DX002 (ip), vehicle: distilled water + Tween-80) 100 % of control; (dose: 100.0 mg/kg/injection, schedule: Q04DX002 (ip), vehicle: distilled water + Tween-80) 102 % of control; (dose: 200.0 mg/kg/injection, schedule: Q04DX002 (ip), vehicle: distilled water + Tween-80) 95 % of control.

In the case of `C[C@H]1C[C@H]2[C@@H]3CC[C@](O)(C(=O)CO)[C@@]3(C)C[C@H](O)[C@]2(F)[C@@]2(C)C=CC(=O)C=C12`, the T/C under setting [1] was 95 % of control; the T/C under setting [2] is 104 % of control; the T/C under setting [12] is 104 % of control; the T/C under setting [13] is 109 % of control; the T/C under setting [14] is 109 % of control; the T/C (dose: 400.0 mg/kg/injection, schedule: Q04DX003 (ip), vehicle: saline with Tween-80) is 90 % of control.

Turning to `CCCCCCN(CCCCCC)CC(O)c1ccc(Br)c2ccccc12` (stereo not given), the T/C by setting is: under setting [9], 93 % of control; under setting [10], 93 % of control; under setting [11], 88 % of control.

Take `CC1(C(=O)O)CCCC2(C)C3=C(CCCC3)CCC12` (stereo not given): the T/C under setting [3] is 104 % of control; the T/C under setting [15] is 100 % of control; the T/C (dose: 400.0 mg/kg/injection, schedule: Q01DX009 (ip), vehicle: saline with Tween-80) was 95 % of control.

`Cc1cc(NC(=S)SCc2ccc(F)cc2)ccc1Br`: the T/C under setting [4] is 112 % of control and 122 % of control; the T/C (dose: 50.0 mg/kg/injection, schedule: Q01DX009 (ip), vehicle: suspension in saline) was 93 % of control; the T/C under setting [5] is 114 % of control and 115 % of control; the T/C (dose: 100.0 mg/kg/injection, schedule: Q01DX009 (ip), vehicle: suspension in saline) was 94 % of control; the T/C (dose: 200.0 mg/kg/injection, schedule: Q01DX009 (ip), vehicle: suspension in saline) was 109 % of control.

For the molecule `O=C(OCc1ccccc1)c1ccc(=O)oc1`, the T/C by setting is: (dose: 100.0 mg/kg/injection, schedule: Q04DX003 (ip), vehicle: Klucel (hydroxypropylcellulose) (HPC)) 114 % of control; (dose: 200.0 mg/kg/injection, schedule: Q04DX003 (ip), vehicle: Klucel (hydroxypropylcellulose) (HPC)) 110 % of control.

As to `CNC(=O)c1ccccc1CC1(O)CCCc2ccccc21` (stereo not given), the T/C runs as follows: under setting [12], 101 % of control; under setting [3], 96 % of control; under setting [15], 96 % of control.

For `CC(=O)OCC(=O)[C@@]1(O)CC[C@H]2[C@@H]3C[C@H](C)C4=CC(=O)C=C[C@]4(C)[C@@]3(F)[C@@H](O)C[C@@]21C`, the T/C (dose: 50.0 mg/kg/injection, schedule: Q04DX003 (ip), vehicle: saline with Tween-80) was 109 % of control; the T/C under setting [3] is 100 % of control; the T/C under setting [13] was 118 % of control; the T/C under setting [15] is 90 % of control; the T/C under setting [14] was 118 % of control.

For the molecule `CNNC(=O)OC`, the T/C is, setting by setting: (dose: 25.0 mg/kg/injection, schedule: Q01DX002 (ip), vehicle: saline) 101 % of control; (dose: 50.0 mg/kg/injection, schedule: Q01DX002 (ip), vehicle: saline) 102 % of control; (dose: 100.0 mg/kg/injection, schedule: Q01DX002 (ip), vehicle: saline) 120 % of control.

For `c1c(-c2cc(C3CC3)on2)noc1C1CC1`, the T/C under setting [6] was 100 % of control, the T/C under setting [7] was 109 % of control and the T/C under setting [8] is 105 % of control.

For the origin of these results see PubChem BioAssay AID330 (DTP/NCI, 2004).
